Columns and labels:
PC9 GR4 cells = assay: Cell viability dose-response assay (CellTiter-Glo), IC50 calculation; assay type: cell-based, human; settings: PC9 GR4; dose-response assay; read-out: Calculated IC50
[1] = test system: PC9, PC9 GR4 and H460 cells; assay: MitoSOX staining, mitochondrial ROS by FACS; assay type: cell-based, human; settings: EGFR mutant PC9 and PC9 GR4 cells, IC50 doses, 24 hours
HCC1954-LCC1 cells = assay: Intracranial injection model of HER2+ breast cancer brain metastasis; assay type: in vivo, mice; settings: oral gavage
Description: Nude mice were injected intracranially with HCC1954-LCC1 cells on Day 0. On Day 10, mice were divided evenly between treatment groups (Vehicle or GNF5) based on tumor burden and weight. Tumors were monitored weekly by BLI until experimental endpoint (Day 55). (FIG. 15A) Overall survival curve of nude mice injected intracranially with HCC1954-LCC1 and treated with vehicle (n=9) or GNF5 (n=10) and representative BLI images of mice at day 33 post-injection. (FIG. 16B) Overall survival curve of nude mice injected intracranially with HCC1954-LCC1 ABL1/2 KO (n=15) or control cells (n=15) and representative of BLI images of mice at day 21 post-injection. Statistical analysis was performed using Log-rank (Mantel-Cox) test.

O=C(NCCO)c1cccc(-c2cc(Nc3ccc(OC(F)(F)F)cc3)ncn2)c1 [GNF5]
IC50 (PC9 GR4 cells): 10 µM | mitochondrial reactive oxygen species (MitoROS) levels [1]: increased | animal survival (HCC1954-LCC1 cells): markedly increased animal survival | metastatic outgrowth and brain colonization (BLI) (HCC1954-LCC1 cells): impaired metastatic outgrowth and colonization of the brain parenchyma
